Results taken from patent US20170232083A1, “METHODS OF DIAGNOSIS AND TREATMENT OF CELIAC DISEASE IN CHILDREN” (priority 2014, published 2017).

Test system: PBMC (polyclonal gluten-specific T cells) of paediatric and adult CD patients
Test: IFN-γ ELISpot of PBMC after 3 day oral wheat challenge (SFU, % of maximal peptide response, dominance scores, EC50; Examples 5-6)
Format: cell-based, human
Details: for Cross-reactive T cell response: following wheat challenge; for IFN-γ ELISpot response: after oral wheat challenge
[1] = subject I (3-5yrs/6-10yrs part)
[2] = subject J (3-5yrs/6-10yrs part)
[3] = subject K (3-5yrs/6-10yrs part)
[4] = subject V (3-5yrs/6-10yrs part)
[5] = subject W (3-5yrs/6-10yrs part)
[6] = subject Y (3-5yrs/6-10yrs part)
[7] = subject five (3-5yrs/6-10yrs part)
[8] = subject seven (3-5yrs/6-10yrs part)
[9] = subject six (3-5yrs/6-10yrs part)
[10] = subject ten (3-5yrs/6-10yrs part)
[11] = subject two (3-5yrs/6-10yrs part)

## QPFPQPEQPIPQQ
Subject A, 11-17yrs
  Cross-reactive T cell response: 3 SFU
Subject D, 11-17yrs
  Significant response as a percentage of maximal peptide SFU: + (>70% = +)
  Cross-reactive T cell response: 29 SFU
Subject E, 11-17yrs
  Significant response as a percentage of maximal peptide SFU: ′′ (21-40% = ′′)
  Cross-reactive T cell response: 87 SFU
Subject F, 11-17yrs
  Significant response as a percentage of maximal peptide SFU: ′′ (21-40% = ′′)
  Cross-reactive T cell response: 62 SFU
Subject G, 11-17yrs
  Cross-reactive T cell response: 4 SFU
Subject H
  Cross-reactive T cell response: 1 SFU
[1]
  Cross-reactive T cell response: 3 SFU
Subject J
  Significant response as a percentage of maximal peptide SFU: ′′′ (41-70% = ′′′)
[2]
  Cross-reactive T cell response: 132 SFU
Subject K
  Significant response as a percentage of maximal peptide SFU: ′ (11-20% = ′)
[3]
  Cross-reactive T cell response: 11 SFU
Subject P, 11-17yrs
  Significant response as a percentage of maximal peptide SFU: + (>70% = +)
  Cross-reactive T cell response: 48 SFU
Subject Q, 11-17yrs
  Significant response as a percentage of maximal peptide SFU: ′′′ (41-70% = ′′′)
  Cross-reactive T cell response: 64 SFU
Subject T, 11-17yrs
  Significant response as a percentage of maximal peptide SFU: + (>70% = +)
  Cross-reactive T cell response: 87 SFU
Subject U, 11-17yrs
  Significant response as a percentage of maximal peptide SFU: ′′′ (41-70% = ′′′)
  Cross-reactive T cell response: 41 SFU
Subject V
  Significant response as a percentage of maximal peptide SFU: ′′′ (41-70% = ′′′)
[4]
  Cross-reactive T cell response: 17 SFU
[5]
  Cross-reactive T cell response: 5 SFU
[6]
  Cross-reactive T cell response: 7 SFU
Subject five
  Significant response as a percentage of maximal peptide SFU: + (>70% = +)
[7]
  Cross-reactive T cell response: 44 SFU
Subject nine, 11-17yrs
  Cross-reactive T cell response: 1 SFU
[8]
  Cross-reactive T cell response: 7 SFU
Subject six
  Significant response as a percentage of maximal peptide SFU: + (>70% = +)
[9]
  Cross-reactive T cell response: 12 SFU
[10]
  Cross-reactive T cell response: 4 SFU
Subject two
  Significant response as a percentage of maximal peptide SFU: ′′ (21-40% = ′′)
[11]
  Cross-reactive T cell response: 24 SFU

## QPFPQPEQPIPVQ
Patient A, 11-17 yrs, cut-off 10 SFU
  IFN-γ ELISpot response: 5 SFU
Patient D, max peptide 30.5 SFU
  Significant response as percentage of maximal peptide SFU: ′′′ (41-70% = ′′′)
Patient E, H, 11-17 yrs, cut-off 10 SFU
  IFN-γ ELISpot response: 76 SFU
Patient E, max peptide 224 SFU
  Significant response as percentage of maximal peptide SFU: ′′ (21-40% = ′′)
Patient F, 11-17 yrs, cut-off 10 SFU
  IFN-γ ELISpot response: 103 SFU
Patient F, max peptide 178 SFU
  Significant response as percentage of maximal peptide SFU: ′′′ (41-70% = ′′′)
Patient G, 11-17 yrs, cut-off 10 SFU
  IFN-γ ELISpot response: 3 SFU
Patient H (HLA-DQ2.5 homozygote), 3-5yrs, cut-off 10 SFU
  IFN-γ ELISpot response: 29 SFU
Patient H, 11-17 yrs, cut-off 10 SFU
  IFN-γ ELISpot response: 10 SFU
Patient H, max peptide 17 SFU
  Significant response as percentage of maximal peptide SFU: ′′′ (41-70% = ′′′)
Patient ID not given, 11-17 yrs, cut-off 10 SFU
  IFN-γ ELISpot response: 95 SFU
Patient J, max peptide 196 SFU
  Significant response as percentage of maximal peptide SFU: ′′′ (41-70% = ′′′)
Patient K, max peptide 53 SFU
  Significant response as percentage of maximal peptide SFU: ′ (11-20% = ′)
Patient M, max peptide 48 SFU
  Significant response as percentage of maximal peptide SFU: ′′′ (41-70% = ′′′)
Patient N, 3-5yrs, cut-off 10 SFU
  IFN-γ ELISpot response: 2 SFU
Patient P, 11-17 yrs, cut-off 21.6 SFU
  IFN-γ ELISpot response: 42 SFU
Patient P, max peptide 64 SFU
  Significant response as percentage of maximal peptide SFU: ′′′ (41-70% = ′′′)
Patient Q, 11-17 yrs, cut-off 10 SFU
  IFN-γ ELISpot response: 51 SFU
Patient Q, max peptide 97 SFU
  Significant response as percentage of maximal peptide SFU: ′′′ (41-70% = ′′′)
Patient U, H, 11-17 yrs, cut-off 10 SFU
  IFN-γ ELISpot response: 27 SFU
Patient U, max peptide 81 SFU
  Significant response as percentage of maximal peptide SFU: ′′ (21-40% = ′′)
Patient V, 6-10 yrs, cut-off 10 SFU
  IFN-γ ELISpot response: 27 SFU
Patient V, max peptide 35 SFU
  Significant response as percentage of maximal peptide SFU: + (>70% = +)
Patient Y, 6-10 yrs, cut-off 10 SFU
  IFN-γ ELISpot response: 9 SFU
Patient eleven, 6-10 yrs, cut-off 10 SFU
  IFN-γ ELISpot response: 9 SFU
Patient five, max peptide 48 SFU
  Significant response as percentage of maximal peptide SFU: + (>70% = +)
Patient four, 3-5yrs, cut-off 10 SFU
  IFN-γ ELISpot response: 10 SFU
Patient four, max peptide 44 SFU
  Significant response as percentage of maximal peptide SFU: ′′ (21-40% = ′′)
Patient seven, 6-10 yrs, cut-off 10.5 SFU
  IFN-γ ELISpot response: 9 SFU
Patient ten, 3-5yrs, cut-off 10 SFU
  IFN-γ ELISpot response: 11 SFU
Patient ten, max peptide 14.5 SFU
  Significant response as percentage of maximal peptide SFU: + (>70% = +)
Patient three, 6-10 yrs, cut-off 10.5 SFU
  IFN-γ ELISpot response: 126 SFU
Patient twelve, 11-17 yrs, cut-off 10 SFU
  IFN-γ ELISpot response: 20 SFU
Patient two, 3-5yrs, cut-off 10 SFU
  IFN-γ ELISpot response: 53 SFU
Patient two, max peptide 60 SFU
  Significant response as percentage of maximal peptide SFU: + (>70% = +)

## QPFPQPEQPIPYQ
Subject A, 11-17yrs
  Cross-reactive T cell response: 8 SFU
Subject D, 11-17yrs
  Significant response as a percentage of maximal peptide SFU: + (>70% = +)
  Cross-reactive T cell response: 23 SFU
Subject E, 11-17yrs
  Significant response as a percentage of maximal peptide SFU: ′′ (21-40% = ′′)
  Cross-reactive T cell response: 86 SFU
Subject F, 11-17yrs
  Significant response as a percentage of maximal peptide SFU: ′′′ (41-70% = ′′′)
  Cross-reactive T cell response: 84 SFU
Subject G, 11-17yrs
  Cross-reactive T cell response: 2 SFU
Subject H
  Cross-reactive T cell response: 3 SFU
[1]
  Cross-reactive T cell response: 5 SFU
Subject J
  Significant response as a percentage of maximal peptide SFU: ′′′ (41-70% = ′′′)
[2]
  Cross-reactive T cell response: 124 SFU
Subject K
  Significant response as a percentage of maximal peptide SFU: ′′ (21-40% = ′′)
[3]
  Cross-reactive T cell response: 21 SFU
Subject P, 11-17yrs
  Significant response as a percentage of maximal peptide SFU: ′′′ (41-70% = ′′′)
  Cross-reactive T cell response: 33 SFU
Subject Q, 11-17yrs
  Significant response as a percentage of maximal peptide SFU: ′′′ (41-70% = ′′′)
  Cross-reactive T cell response: 58 SFU
Subject T, 11-17yrs
  Significant response as a percentage of maximal peptide SFU: + (>70% = +)
  Cross-reactive T cell response: 84 SFU
Subject U, 11-17yrs
  Significant response as a percentage of maximal peptide SFU: ′′′ (41-70% = ′′′)
  Cross-reactive T cell response: 55 SFU
Subject V
  Significant response as a percentage of maximal peptide SFU: ′′′ (41-70% = ′′′)
[4]
  Cross-reactive T cell response: 22 SFU
[5]
  Cross-reactive T cell response: 11 SFU
Subject Y
  Significant response as a percentage of maximal peptide SFU: ′′′ (41-70% = ′′′)
[6]
  Cross-reactive T cell response: 11 SFU
Subject five
  Significant response as a percentage of maximal peptide SFU: ′′′ (41-70% = ′′′)
[7]
  Cross-reactive T cell response: 30 SFU
Subject nine, 11-17yrs
  Cross-reactive T cell response: 0 SFU
[8]
  Cross-reactive T cell response: 8 SFU
Subject six
  Significant response as a percentage of maximal peptide SFU: + (>70% = +)
[9]
  Cross-reactive T cell response: 11 SFU
[10]
  Cross-reactive T cell response: 9 SFU
Subject two
  Significant response as a percentage of maximal peptide SFU: ′′′ (41-70% = ′′′)
[11]
  Cross-reactive T cell response: 31 SFU

## QPFPQPEQPTPIQ
Subject A, 11-17yrs
  Cross-reactive T cell response: 6 SFU
Subject D, 11-17yrs
  Significant response as a percentage of maximal peptide SFU: ′′ (21-40% = ′′)
  Cross-reactive T cell response: 11 SFU
Subject E, 11-17yrs
  Significant response as a percentage of maximal peptide SFU: ′′ (21-40% = ′′)
  Cross-reactive T cell response: 63 SFU
Subject F, 11-17yrs
  Cross-reactive T cell response: 73 SFU
Subject G, 11-17yrs
  Cross-reactive T cell response: 1 SFU
Subject H
  Cross-reactive T cell response: 1 SFU
[1]
  Cross-reactive T cell response: 0 SFU
Subject J
  Significant response as a percentage of maximal peptide SFU: ′′′ (41-70% = ′′′)
[2]
  Cross-reactive T cell response: 86 SFU
[3]
  Cross-reactive T cell response: 7 SFU
Subject P, 11-17yrs
  Significant response as a percentage of maximal peptide SFU: ′′ (21-40% = ′′)
  Cross-reactive T cell response: 23 SFU
Subject Q, 11-17yrs
  Significant response as a percentage of maximal peptide SFU: ′′′ (41-70% = ′′′)
  Cross-reactive T cell response: 39 SFU
Subject T, 11-17yrs
  Significant response as a percentage of maximal peptide SFU: ′′′ (41-70% = ′′′)
  Cross-reactive T cell response: 61 SFU
Subject U, 11-17yrs
  Significant response as a percentage of maximal peptide SFU: ′′ (21-40% = ′′)
  Cross-reactive T cell response: 21 SFU
[4]
  Cross-reactive T cell response: 5 SFU
[5]
  Cross-reactive T cell response: 0 SFU
[6]
  Cross-reactive T cell response: 4 SFU
Subject five
  Significant response as a percentage of maximal peptide SFU: + (>70% = +)
[7]
  Cross-reactive T cell response: 38 SFU
Subject nine, 11-17yrs
  Cross-reactive T cell response: 2 SFU
[8]
  Cross-reactive T cell response: 6 SFU
Subject six
  Significant response as a percentage of maximal peptide SFU: + (>70% = +)
[9]
  Cross-reactive T cell response: 12 SFU
[10]
  Cross-reactive T cell response: 8 SFU
Subject two
  Significant response as a percentage of maximal peptide SFU: ′′ (21-40% = ′′)
[11]
  Cross-reactive T cell response: 20 SFU

## QPFPQPEQQLPLQ
Subject A, 11-17yrs
  Cross-reactive T cell response: 1 SFU
Subject D, 11-17yrs
  Cross-reactive T cell response: 5 SFU
Subject E, 11-17yrs
  Significant response as a percentage of maximal peptide SFU: ′ (11-20% = ′)
  Cross-reactive T cell response: 30 SFU
Subject F, 11-17yrs
  Cross-reactive T cell response: 5 SFU
Subject G, 11-17yrs
  Cross-reactive T cell response: 1 SFU
Subject H
  Cross-reactive T cell response: 1 SFU
[1]
  Cross-reactive T cell response: 3 SFU
Subject J
  Significant response as a percentage of maximal peptide SFU: ′′′ (41-70% = ′′′)
[2]
  Cross-reactive T cell response: 79 SFU
[3]
  Cross-reactive T cell response: 9 SFU
Subject P, 11-17yrs
  Cross-reactive T cell response: 11 SFU
Subject Q, 11-17yrs
  Significant response as a percentage of maximal peptide SFU: ′ (11-20% = ′)
  Cross-reactive T cell response: 11 SFU
Subject T, 11-17yrs
  Significant response as a percentage of maximal peptide SFU: ′′ (21-40% = ′′)
  Cross-reactive T cell response: 27 SFU
Subject U, 11-17yrs
  Cross-reactive T cell response: 4 SFU
[4]
  Cross-reactive T cell response: 3 SFU
[5]
  Cross-reactive T cell response: 3 SFU
[6]
  Cross-reactive T cell response: 5 SFU
Subject five
  Significant response as a percentage of maximal peptide SFU: ′′ (21-40% = ′′)
[7]
  Cross-reactive T cell response: 11 SFU
Subject nine, 11-17yrs
  Cross-reactive T cell response: 3 SFU
[8]
  Cross-reactive T cell response: 11 SFU
Subject six
  Significant response as a percentage of maximal peptide SFU: + (>70% = +)
[9]
  Cross-reactive T cell response: 11 SFU
[10]
  Cross-reactive T cell response: 6 SFU
[11]
  Cross-reactive T cell response: 2 SFU
